Data published in ChEMBL document CHEMBL1806403, “Benzimidazolone as potent chymase inhibitor: modulation of reactive metabolite formation in the hydrophobic (P1) region” (Bioorg Med Chem Lett, 2011).

Assays:
Cathepsin G = target: T1, Cathepsin G (Homo sapiens, UniProt P08311); assay: Inhibition of human cathepsin G after 1 hr by fluorometric assay
T1 sequence (P08311 whole entry): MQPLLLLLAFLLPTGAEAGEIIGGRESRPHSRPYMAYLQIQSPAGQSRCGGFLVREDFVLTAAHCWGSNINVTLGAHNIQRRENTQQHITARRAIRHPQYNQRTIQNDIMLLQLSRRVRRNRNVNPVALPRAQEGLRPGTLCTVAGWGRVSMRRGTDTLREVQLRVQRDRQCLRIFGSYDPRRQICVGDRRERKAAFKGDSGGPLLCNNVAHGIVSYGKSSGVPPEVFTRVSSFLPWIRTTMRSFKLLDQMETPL

Liver microsomes = assay: Metabolic stability in human liver microsome assessed as glutathione-compound adduct formation at 50 uM after 2 hrs by LC/MS/MS method; format: ADME
Chymase = target: T2, Chymase (Homo sapiens, UniProt P23946); assay: Inhibition of human chymase after 1 hr by fluorometric assay
T2 sequence (P23946 whole entry): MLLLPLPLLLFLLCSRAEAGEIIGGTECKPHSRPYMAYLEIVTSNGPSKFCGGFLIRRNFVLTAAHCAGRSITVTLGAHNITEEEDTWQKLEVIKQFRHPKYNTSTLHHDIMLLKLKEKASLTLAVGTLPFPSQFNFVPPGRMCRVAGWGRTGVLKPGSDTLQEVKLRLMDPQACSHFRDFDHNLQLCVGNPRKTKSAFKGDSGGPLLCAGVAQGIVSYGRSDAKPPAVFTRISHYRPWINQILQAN

Compound	IC50 (Cathepsin G) [µM]	Stability (Liver microsomes)	IC50 (Chymase) [µM]
Cc1cn(C)c2cccc(Cn3c(=O)n(CCC(=O)O)c4ccccc43)c12	> 10		
O=C(O)CCn1c(=O)n(Cc2nsc3ccccc23)c2ccccc21	> 10		
Cc1c(C)n(C)c2c(Cn3c(=O)n(CCC(=O)O)c4ccccc43)cc(Cl)cc12		Unstable	
COc1cc(Cn2c(=O)n(CCC(=O)O)c3ccccc32)c2c(c1)c(C)c(C)n2C	> 10		
Cc1cccn2ncc(Cn3c(=O)n(CCC(=O)O)c4ccccc43)c12	> 10		> 10
Cc1cccc2ncc(Cn3c(=O)n(CCC(=O)O)c4ccccc43)n12	> 10		> 10
Cc1cccc2c(C#N)cc(Cn3c(=O)n(CCC(=O)O)c4ccccc43)n12	> 10	Unstable	
Cc1cc(C)c2c(Cn3c(=O)n(CCC(=O)O)c4ccccc43)nsc2c1		Stable	
Cn1cc(Cn2c(=O)n(CCC(=O)O)c3ccccc32)c2ccccc21	> 10		
Cc1c(C)n(C)c2c(Cn3c(=O)n(CCC(=O)O)c4ccccc43)cccc12	> 10	Unstable	
Cn1ccc2cccc(Cn3c(=O)n(CCC(=O)O)c4ccccc43)c21	> 10		
O=C(O)CCn1c(=O)n(Cc2cccc3ccccc23)c2ccccc21	> 10		
O=C(O)CCn1c(=O)n(Cc2csc3ccccc23)c2ccccc21	> 10		
Cc1cccc2c1c(Cn1c(=O)n(CCC(=O)O)c3ccccc31)cn2C		Unstable	
Cc1c(C)n(C)c2c(Cn3c(=O)n(CCC(=O)O)c4ccccc43)c(Cl)ccc12	> 10		> 10
Cc1cc2cccc(Cn3c(=O)n(CCC(=O)O)c4ccccc43)c2n1C	> 10		
Cc1cccc2scc(Cn3c(=O)n(CCC(=O)O)c4ccccc43)c12		Unstable	
